Measured values taken from PMC13347698 (Analytical Chemistry, 2026).
Where “and” joins values, the source holds several entries; their conditions need not be identical. Equal entries are not always repeated.

Assays:
[1] = biological target: T1, native SARS-CoV-2 3CL^pro (Severe acute respiratory syndrome coronavirus 2, UniProt P0DTD1); experiment: biochemical; assay type: biochemical
wild-type 3CL^pro = wild-type 3CL^pro (Severe acute respiratory syndrome coronavirus 2, UniProt P0DTD1); experiment: biochemical; assay type: binding, SARS-CoV-2; details: K D (wt)
SARS-CoV-2 3CL^pro = details: cited from earlier work
[2] = biological target: T1, native SARS-CoV-2 3CL^pro; assay type: biochemical
SARS-CoV 3CL^pro = details: cited from earlier work

| SMILES | Ki [1] | Kd (wild-type 3CL^pro) | IC50 (SARS-CoV-2 3CL^pro) | binding kinetics (fast or slow-binding) [2] | covalent or noncovalent inhibition [2] | reduction of reaction rate vi with respect to v0 [2] | reduction of thermal power minimum with respect to the noninhibited reaction [2] | tight or nontight binding [2] | inhibition mode [1] | α parameter [1] | IC50 (SARS-CoV 3CL^pro) |
| --- | --- | --- | --- | --- | --- | --- | --- | --- | --- | --- | --- |
| O=C(Nc1ccc(N(Cc2ccsc2)C(=O)Cn2nnc3ccccc32)cc1)C1CC1 [ML300] | 6.2 ± 0.4 µM | 7.5 µM and 3.6 µM | low micromolar range | – | – | – | – | – | – | – | – |
| CC(C)(C)c1ccc(N(C(=O)c2c[nH]cn2)[C@@H](C(=O)NC2CCCCC2)c2cccnc2)cc1 [X77] | – | – | – | fast | noncovalent | ca. 70% | ca. 40% | nontight | predominantly competitive | 16 ± 3 | 3.4 µM |
